Measurements published in patent publication US20250313528A1, “NOVEL COMPOUND AND PHARMACEUTICAL COMPOSITION FOR PREVENTING OR TREATING PULMONARY FIBROSIS COMPRISING SAME AS ACTIVE INGREDIENT” (GIL MEDICAL CENTER, priority 2022, published 2025).

Key:
[1] = system: FN, COL1A1, α-SMA, TGF-β, and CTGF; assay: qRT-PCR of fibrosis-related genes in lung tissue, BLM model; type: in vivo, C57BL/6N mice; details: BLM mice, compared to the BLM group
Method: (§1) Specifically, 7-week-old C57BL/6N mice were exposed to BLM (3-5 units/kg) via the airway. The compounds were administered orally at doses of 200 μg/kg and 500 μg/kg for Compound 1, and 100 μg/kg and 200 μg/kg for Compound 2, three times a week for three weeks starting the day after BLM exposure. Body weight gain was periodically measured during the experimental period, and lung weight was measured at the end of the experiment.
Specifically, to extract RNA from lung tissue, approximately 100 mg of pulverized lung tissue was dispensed into 1.5 mL tubes, and total RNA was extracted using TRIzol reagent (TakaRa Bio Inc., Japan). After adding 1 mL of TRIzol reagent to denature the tissue, the samples were transferred to 1.5 ml tubes, and 200 μl of chloroform was added, followed by vortexing for 20 seconds to mix thoroughly. After reacting at room temperature for 15 minutes, the samples were centrifuged at 14,000 rpm for 20 minutes to obtain the supernatant. An equal volume of isopropyl alcohol was added, inverted, and allowed to stand at room temperature for 10 minutes. The samples were centrifuged at 14,000 rpm for 15 minutes to obtain RNA pellets, washed with 70% ethanol at 14,000 rpm for 5 minutes, and dried for 5 minutes. […] The RNA concentration and purity were measured at OD 260/280 nm using a Nanodrop.

[2] = system: FN, COL1A1, and α-SMA; assay: qRT-PCR of fibrosis-related genes in TGF-β1-induced DHLF-IPF cells; type: cell-based, human; details: 10 μM pretreatment 1 hour, TGF-β1 1 ng/ml 48 hours, FIG. 4c/4d
Method: MRC-5 and DHLF-IPF cells were each cultured in growth medium, and the medium was removed. […] The medium was then removed, and the cells were washed once with PBS. Intracellular total RNA was extracted from the cultured cells using TRIzol reagent (TaKaRa Bio Inc., Japan) for gene expression analysis. 1 mL of TRIzol reagent was added to lyse the cells and denature the tissue. The lysate was transferred to each 1.5 mL tube, and 200 μL of chloroform was added thereto, followed by vortexing for 20 seconds to ensure complete mixing. After incubating at room temperature for 15 minutes, the mixture was centrifuged at 14,000 rpm for 20 minutes to obtain the supernatant. After adding an equal volume of isopropyl alcohol, the tubes were inverted and incubated at room temperature for 10 minutes. The sample was centrifuged at 14,000 rpm for 15 minutes to obtain an RNA pellet, which was washed by centrifugation with 70% ethanol for use on RNA at 14,000 rpm for 5 minutes, and dried for 5 minutes. The dried RNA sample was added with 20 μL of distilled water treated with 0.1% diethyl pyrocarbonate (DEPC) to dissolve the pallet and the resultant was used as a sample for cDNA synthesis. 1 μL of the same was used to measure the RNA concentration and purity at O.D. 260/280 nm using a Nanodrop.
Single-stranded cDNA synthesis was performed by mixing 1 μg of the extracted total RNA with 1 μL of oligo-d(T) primer ([…]) and 10 mM dNTP (TaKaRa Bio Inc., Japan), reacting at 65° C. for 5 minutes, followed by rapid cooling. To this template, 4 μL of 5×RT buffer, 0.5 μL of RNA inhibitor, and 100 units of RTase (TaKaRa Bio Inc., Japan) were added, and the total volume was adjusted to 20 μL using DEPC-treated distilled water. […]
Each gene expression level was measured using real-time PCR. […] The specificity of the amplified product was confirmed through melting curve analysis, and the target genes were quantified and compared using GAPDH as a control gene.

[3] = system: fibronectin and α-SMA; assay: Western blotting of fibrosis-related proteins in TGF-β1-induced DHLF-IPF cells; type: cell-based, human; details: TGF-β1 1 ng/ml, 10 μM, FIG. 4b
Method: Specifically, to extract fibronectin and α-SMA proteins, the cells were washed once with cold PBS and then RIPA buffer (150 mM NaCl, 0.5% Triton X-100, 50 mM Tris-HCl, pH 7.4, 25 mM NaF, 20 mM EGTA), which was added with a protease inhibitor cocktail, was added thereto to lyse the cells. Then, the proteins were quantified using a BCA protein assay kit. All protein samples were subjected to electrophoresis at 10 μg on 8% to 10% PAGE gels and then transferred to 0.2 μm PVDF membranes (EMD Millipore, MA, USA). The membranes to which the protein was transferred were blocked with 5% BSA or 5% skim milk for 1 hour, and then primary antibodies were added thereto and incubated overnight at 4° C. The following day, the membranes were washed three times with PBST, and then HRP-conjugated secondary antibodies were added and reacted at room temperature for 1 hour. The PVDF membranes prepared through such procedures were smeared with ECL (Luminata™ Crescendo, EMD Millipore) and exposed to a fluorescence reader to confirm the level of protein expression.
To compare the changes in fibrosis-related protein expression by treating normal MRC-5 and diseased DHLF-IPF cell lines induced with pulmonary fibrosis by TGF-β1 with SFN and the two candidate compounds, Western blotting was performed.
The specific experimental methods are the same as in Example 2. TGF-β1 was treated at 1 ng/ml to induce fibrosis, and sulforaphane and the two compounds each were treated at a concentration of 10 μM.

[4] = system: bleomycin (BLM)-induced pulmonary fibrosis animal models; assay: Hydroxyproline quantification in lung tissue of BLM model; type: in vivo, C57BL/6N mice; details: BLM mice, compared to the BLM group
Method: as §1
Specifically, homogenized lung tissue was placed in 1.5 mL tubes in similar amounts to prevent thawing, and 100 μL of 12 M hydrochloric acid was added for hydrolysis at 120° C. for 3 hours. After centrifugation at 10,000×g for 5 minutes, the supernatant was transferred to a new tube, and 10 μL of the sample was transferred to a 96-well plate and evaporated at 60° C. Subsequently, 100 μL of chloramine T reagent/oxidation buffer mixture was added to each well, followed by 100 μL of para-dimethylaminobenzaldehyde reagent, and reacted at 60° C. for 90 minutes. Absorbance was measured at 540 nm, and the content was determined using a standard calibration curve prepared in the same manner.

Row | Compound | expression of five genes (FN, COL1A1, α-SMA, TGF-β, and CTGF) in lung tissue [1] | gene expression levels of FN, COL1A1, and α-SMA [2] | expression levels of fibronectin and α-SMA protein [3] | hydroxyproline content in lung tissue ([4]; 200 μg/kg orally) | hydroxyproline content in lung tissue ([4]; 100 μg/kg orally)
1 | CCOC(=O)C(CSC(=S)NCCCC[S+](C)[O-])NC(C)=O (stereo not drawn) [Compound 1] | significant reduction | significantly reducing the expression levels compared to sulforaphane | significantly reducing the expression levels compared to sulforaphane | reduced | 
2 | C=CCOC(=O)C(CSC(=S)NCCCC[S+](C)[O-])NC(C)=O (stereo not drawn) [Compound 2] | significant reduction | significantly reducing the expression levels compared to sulforaphane | significantly reducing the expression levels compared to sulforaphane | significant reductions | significant reductions
